These results are taken from paper PMC6199744, “Development of Chemical Proteomics for the Folateome and Analysis of the Kinetoplastid Folateome” (ACS Infectious Diseases, 2018).

Like-named read-outs stand apart in the source and are kept apart here.

What all share (type): binding
Assay [1] has as its target T1, HeLa cell extract proteins (Homo sapiens, UniProt P04004).
T1 construct: endogenous in cells; host or cells: HeLa cell extract
T1 sequence (P04004 20-478): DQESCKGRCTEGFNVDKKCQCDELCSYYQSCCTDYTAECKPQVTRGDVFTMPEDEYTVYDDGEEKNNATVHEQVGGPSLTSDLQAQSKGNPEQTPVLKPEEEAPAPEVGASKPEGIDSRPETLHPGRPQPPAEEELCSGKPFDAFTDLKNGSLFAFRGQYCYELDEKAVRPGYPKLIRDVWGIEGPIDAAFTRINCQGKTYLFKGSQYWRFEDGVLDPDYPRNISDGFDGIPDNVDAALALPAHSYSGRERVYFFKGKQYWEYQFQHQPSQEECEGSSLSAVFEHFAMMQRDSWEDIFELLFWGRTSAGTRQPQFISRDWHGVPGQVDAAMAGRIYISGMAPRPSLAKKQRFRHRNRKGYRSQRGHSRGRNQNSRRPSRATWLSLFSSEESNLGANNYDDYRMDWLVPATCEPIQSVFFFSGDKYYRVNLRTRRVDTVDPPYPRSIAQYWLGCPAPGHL
Particulars: HeLa; protein VTN.

Assay [2] concerns the target T2, HeLa cell extract proteins (Homo sapiens, UniProt P30048).
T2 construct: endogenous in cells; host or cells: HeLa cell extract
T2 sequence (P30048 62-256): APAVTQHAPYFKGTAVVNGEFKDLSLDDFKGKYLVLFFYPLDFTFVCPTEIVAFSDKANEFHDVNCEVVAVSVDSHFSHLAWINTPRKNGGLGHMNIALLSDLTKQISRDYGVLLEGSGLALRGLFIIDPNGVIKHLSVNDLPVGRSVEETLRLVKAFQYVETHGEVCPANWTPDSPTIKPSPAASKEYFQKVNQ
Conditions: protein PRDX3; HeLa.

Assay [3] concerns the target T3, HeLa cell extract proteins (Homo sapiens, UniProt O00483).
T3 construct: endogenous in cells; host or cells: HeLa cell extract
Particulars: captured protein NDUFA4; HeLa.

The target of assay [4] is T4, HeLa cell extract proteins (Homo sapiens, UniProt P42330).
T4 construct: endogenous in cells; host or cells: HeLa cell extract
T4 sequence (P42330 1-323): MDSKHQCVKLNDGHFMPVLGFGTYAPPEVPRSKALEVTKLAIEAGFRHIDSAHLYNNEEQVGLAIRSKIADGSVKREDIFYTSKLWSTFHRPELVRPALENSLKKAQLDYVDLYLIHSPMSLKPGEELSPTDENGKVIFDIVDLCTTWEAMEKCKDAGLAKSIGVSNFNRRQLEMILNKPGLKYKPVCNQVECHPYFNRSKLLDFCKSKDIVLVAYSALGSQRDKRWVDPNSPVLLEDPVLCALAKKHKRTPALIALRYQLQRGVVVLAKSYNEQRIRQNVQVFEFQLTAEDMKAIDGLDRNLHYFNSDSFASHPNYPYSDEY

The target in assay [5] is T5, HeLa cell extract proteins (Homo sapiens, UniProt Q9BSE5).
T5 construct: endogenous in cells; host or cells: HeLa cell extract
T5 sequence (Q9BSE5 36-352): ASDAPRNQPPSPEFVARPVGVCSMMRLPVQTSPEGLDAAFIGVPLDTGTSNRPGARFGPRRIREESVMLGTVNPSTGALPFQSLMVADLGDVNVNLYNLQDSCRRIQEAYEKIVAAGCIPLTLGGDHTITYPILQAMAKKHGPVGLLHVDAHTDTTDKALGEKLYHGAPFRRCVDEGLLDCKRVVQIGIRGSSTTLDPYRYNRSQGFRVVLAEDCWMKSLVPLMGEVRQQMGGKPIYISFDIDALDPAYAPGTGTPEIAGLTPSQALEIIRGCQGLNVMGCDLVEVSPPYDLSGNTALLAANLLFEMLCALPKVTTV

In assay [6] the target is T6, HeLa cell extract proteins (Homo sapiens, UniProt Q12904).
T6 construct: endogenous in cells; host or cells: HeLa cell extract
T6 sequence (Q12904 1-312): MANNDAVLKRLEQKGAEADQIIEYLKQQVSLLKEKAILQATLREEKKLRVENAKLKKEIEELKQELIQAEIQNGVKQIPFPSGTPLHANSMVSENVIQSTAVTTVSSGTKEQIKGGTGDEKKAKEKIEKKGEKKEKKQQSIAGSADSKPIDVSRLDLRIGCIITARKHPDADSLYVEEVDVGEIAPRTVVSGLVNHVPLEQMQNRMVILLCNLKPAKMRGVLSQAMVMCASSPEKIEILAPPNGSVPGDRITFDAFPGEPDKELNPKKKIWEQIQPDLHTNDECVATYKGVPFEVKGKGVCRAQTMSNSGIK

The target of assay [7] is T7, HeLa cell extract proteins (Homo sapiens, UniProt Q8IWA4).
T7 construct: endogenous in cells; host or cells: HeLa cell extract
T7 sequence (Q8IWA4 1-741): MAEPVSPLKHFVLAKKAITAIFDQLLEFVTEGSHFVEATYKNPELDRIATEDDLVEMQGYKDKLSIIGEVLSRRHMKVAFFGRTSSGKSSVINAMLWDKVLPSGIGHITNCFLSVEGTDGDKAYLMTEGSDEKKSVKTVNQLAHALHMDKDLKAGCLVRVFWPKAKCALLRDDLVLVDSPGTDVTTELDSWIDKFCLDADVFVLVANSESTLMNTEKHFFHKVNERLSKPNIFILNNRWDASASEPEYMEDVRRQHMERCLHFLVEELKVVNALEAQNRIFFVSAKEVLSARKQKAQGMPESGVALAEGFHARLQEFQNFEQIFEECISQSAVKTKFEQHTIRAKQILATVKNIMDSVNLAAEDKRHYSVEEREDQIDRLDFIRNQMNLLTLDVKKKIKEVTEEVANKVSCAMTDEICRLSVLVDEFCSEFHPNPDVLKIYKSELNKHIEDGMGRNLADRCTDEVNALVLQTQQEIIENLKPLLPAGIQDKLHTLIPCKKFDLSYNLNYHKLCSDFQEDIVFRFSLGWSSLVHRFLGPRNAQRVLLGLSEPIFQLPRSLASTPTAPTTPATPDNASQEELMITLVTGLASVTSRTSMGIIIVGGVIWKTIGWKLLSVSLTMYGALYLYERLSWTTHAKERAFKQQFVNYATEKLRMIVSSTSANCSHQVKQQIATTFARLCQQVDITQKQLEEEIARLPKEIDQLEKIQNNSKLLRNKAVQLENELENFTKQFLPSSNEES

T3 sequence (O00483 whole entry): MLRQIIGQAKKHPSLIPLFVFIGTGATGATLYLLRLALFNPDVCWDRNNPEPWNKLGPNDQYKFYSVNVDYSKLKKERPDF

`Nc1nc2cccc(-c3ccccc3)c2n1Cc1ccc(Cl)c(Cl)c1` [compound 3]: the “fold changes relative to vehicle control” value in assay [1] is given as 1.05; in assay [2], 0.99; in assay [3], 0.82.

`NCCOCCOCC(=O)Nc1nc2ncc(CNc3ccc(C(=O)NC(CCC(=O)O)C(=O)O)cc3)nc2c(=O)[nH]1` (stereo not shown) [compound 6]: the “fold changes relative to vehicle control” value in assay [4] (HeLa, protein AKR1C3) was 1.3; in assay [5] (protein AGMAT, HeLa), 0.97; in assay [6] (HeLa, protein SCYE1) it was 0.99; in assay [7] (protein MFN1, HeLa), 0.99.

Turning to `Nc1nc2[nH]cc(CCc3ccc(C(=O)N[C@@H](CCC(=O)O)C(=O)O)cc3)c2c(=O)[nH]1` [PTX, pemetrexed], the “fold changes relative to vehicle control” value turned out to be 1.13 in assay [4], 0.89 in assay [5], 0.91 in assay [6] and 0.89 in assay [7].

Take `Nc1nc2c(c(=O)[nH]1)N(C=O)C(CNc1ccc(C(=O)N[C@@H](CCC(=O)O)C(=O)O)cc1)CN2` (stereo partly shown) [LEU, leucovorin]: the “fold changes relative to vehicle control” value in assay [4] (HeLa, protein AKR1C3) stood at 0.98; in assay [5] (protein AGMAT, HeLa) it was 0.84; in assay [6] (HeLa, protein SCYE1), 0.85; in assay [7] (protein MFN1, HeLa), 0.81.

For `CCCCCCOc1ccc(Cc2cnc(N)nc2N)cc1` [compound 1], the results for the “fold changes relative to vehicle control” value in assay [1], in assay [2] and in assay [3] were 1, 1.11 and 0.8, respectively.

Regarding `NCCCNc1ccc(C(=O)NC(CCC(=O)O)C(=O)O)cc1` (stereo not shown) [compound 7], the “fold changes relative to vehicle control” value in assay [4] (HeLa, protein AKR1C3) came out at 0.99; in assay [5] (protein AGMAT, HeLa), 0.93; in assay [6] (HeLa, protein SCYE1) it was 0.86; in assay [7] (protein MFN1, HeLa) it was 1.02.

In the case of `CCCCCCOc1cccc(Cc2cnc(N)nc2N)c1` [compound 2], the “fold changes relative to vehicle control” value in assay [1] amounted to 0.91; in assay [2] it was 1.52; in assay [3] it was 1.17.
